Where a name gives a salt, the structure may show the parent alone.
Tested on: plaque-like psoriasis
Assay: Treatment of a subject with moderately severe plaque-like psoriasis (case report, Example 1)
Format: in vivo, human
Conditions: person, plaque-like psoriasis of legs; 60 mg twice daily for 12 consecutive days
Experimental: The subject presented with moderately severe plaque-like psoriasis of their legs. The subject had suffered from psoriasis for most of their life, and the condition had worsened immediately prior to the present study. […] The subject was treated with 60 mg of tomoxetine hydrochloride, twice daily for 12 consecutive days.

## CNCC[C@@H](Oc1ccccc1C)c1ccccc1 [tomoxetine hydrochloride, (R)-(−)-N-methyl-3-(2-methylphenoxy)-3-phenylpropylamine]
  Clinical outcome of psoriasis lesions at final assessment: significant improvement

— patent US6683114B2, “Treatment of psoriasis” (Eli Lilly and Company, priority 2000, dated 2004)
